The nature of this data set: UV absorption (E1% 1 cm). Type of data set: physicochemical. Particulars: at the λmax printed in Table 1 (290 nm fatty acids; 305 nm Homosalate, Octyl salicylate). The source says:
Personal care composition comprising fatty acids, as obtained synthetically from Tung seed oil by aforementioned process, have good UV absorbing activity arising from the conjugated system of the fatty acids and is evident from its value of E1% lcm which is 1600 at 270 nm and 360 at 290 nm. In view of incorporation of the fatty acids in the personal care composition, not only the ingredients of the formulations are protected but also the skin and hair are protected from the ravages of solar radiation when the formulations are applied. […] The same is evident from the values of E1% lcm which is 360 at 290 nm (FIG. 2). UV B radiation of solar spectrum is the most damaging since it causes skin cancer.

`CC1CC(OC(=O)c2ccccc2O)CC(C)(C)C1` (stereo not shown) [Homosalate]: the “E1%, 1 cm” value is given as 180.
